These results are taken from the METLIN SMRT retention time set (Domingo-Almenara et al. 2019).

The series is described as follows: gradient 5% acetonitrile 3 min, to 50% in 2 min, to 85% in 15 min, held 3 min, 100 µL/min. The conditions noted are these: column: Zorbax Extend-C18 2.1 x 50 mm; eluents: water / acetonitrile, 0.1% formic acid. The essentials: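 Pure standards were analyzed in mixtures of ~100 molecules using HPLC coupled to a quadrupole time-of-flight mass spectrometer, in both positive and negative ionization mode. Separation used a Zorbax Extend-C18 column (2.1 × 50 mm, 1.8 μm) at 100 μL/min, with water and acetonitrile each containing 0.1% formic acid. Dead and dwell volumes were 40 μL and 900 μL, and data were collected over 3 months. Retention time was read from computationally picked adduct peaks, each inspected manually.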
`Cc1ccc(-c2nc(-c3ccc(-n4cccn4)nc3)no2)cc1` registered an RP-LC retention time of 1330 s.
The same measure for `CC(C)C(=O)Nc1ccc2c(c1)N(C(=O)c1ccco1)CCC2`: 743 s; for `Cn1c(=O)n(C)c2cc(CNc3cc(C(=O)O)ccc3Cl)ccc21`: 738 s; for `CC1(C)CC(=O)c2cn(-c3ccc(Cl)cc3)c(=O)c(C(=O)N3CCN(c4ccccn4)CC3)c2C1`: 650 s.
The same measure for `CCSc1nnc(-c2nn(C)c3c2CN(S(=O)(=O)c2cccc(F)c2)CC3)n1CC`: 922 s; for `CCn1cc(CCN2CCC(C(=O)NC3CCCCC3)CC2)c2cccnc21`: 619 s.
Consider `Cc1ccc(-c2nnc(Cc3nc(-c4cccc(Br)c4)no3)o2)cc1C`, for which the RP-LC retention time was determined as 1270 s.
The same measure for `CCCNC(=O)CC1CCN(C(=O)c2[nH]c(C)c(C(=O)OC(C)C)c2C)CC1`: 724 s; for `C#CCOc1ccc2c(c1)c(-c1ccc(C(C)C)cc1)nc(=O)n2C(C)C`: 1160 s; for `Fc1ccc(Cc2nc3nccc(-c4cc5ccccc5o4)n3n2)cc1`: 1130 s.
The same measure for `CN(C)S(=O)(=O)c1ccc(-c2nnc(C(=O)NCc3ccc(F)c(Cl)c3)o2)cc1`: 898 s; for `COc1ccccc1-c1noc(CCn2nc(-c3ccc(F)cc3)ccc2=O)n1`: 863 s.
Turning to `CC(C)NC(=O)C1CCN(S(C)(=O)=O)c2cc(Cl)ccc2O1` (stereo not drawn), the RP-LC retention time came to 777 s.
`NC(=O)C1CCN(C(=O)CCn2cnc3cc(S(=O)(=O)N4CCCC4)ccc32)CC1` returned an RP-LC retention time of 577 s.
The value for `Cc1ccc(NC(=O)Cn2cnc3nc(N4CCC(C(=O)NC5CC5)CC4)sc3c2=O)cc1C` was 693 s; that for `CCN(CC)S(=O)(=O)c1ccc2nc(Cl)cnc2c1` was 950 s; that for `Nc1nc(Nc2ccccc2Cl)nc2ccccc12` was 615 s.
Consider `Cc1noc2ncnc(N3CCCC(C(=O)N4CCN(Cc5ccc6c(c5)OCO6)CC4)C3)c12` (stereo not drawn), for which the RP-LC retention time came out at 611 s.
The value for `CCc1nn2c(CNC(=O)c3cccc(OC)c3)c(-c3ccccc3)nc2s1` was 885 s; that for `CCC1(O)CCOC2(CCN(Cc3cc(OC)cc(OC)c3)CC2)C1` (stereo not drawn) was 568 s.
The value for `CC(C)c1nnc(-c2cccnc2N2CCN(C(=O)c3ccoc3)CC2)o1` was 725 s.
For `c1ccc(OCc2nc3ccccc3n2CC2CCN(Cc3ccccn3)CC2)cc1`, the RP-LC retention time is 559 s.
The same measure for `CC(C)S(=O)(=O)c1ccc(CC(=O)N(Cc2cccs2)Cc2cccn2C)cc1`: 877 s; for `O=C(NCc1ccsc1)C(=O)Nc1ccon1`: 665 s.
Molecule `COCc1noc([C@@H]2CC(F)(F)CN2C(=O)c2nccn2C)n1` had an RP-LC retention time of 716 s.
The same measure for `CCn1nnc2ccc(-c3noc(-c4ccc(OC)c(OC)c4)n3)cc21`: 963 s.
The value for `CCOc1ccccc1NC(=O)Cn1nc2c(N3CCSCC3)nccn2c1=O` was 853 s; that for `O=C(NC1(c2nc(-c3ccncc3)no2)CCCCC1)c1ccccc1` was 863 s.
The value for `CCCn1cc(-c2nc(-c3ccccn3)no2)c(=O)c2cc(F)ccc21` was 761 s; that for `CC1Oc2ccc(-c3csc(NC(=O)COc4ccc(Cl)cc4)n3)cc2NC1=O` (stereo not drawn) was 966 s; that for `Cc1nnc(NC(=O)CCc2csc(NC(=O)c3ccco3)n2)s1` was 630 s.
As for `Cc1ccc(N2N=C(C(=O)NCCN3CCOCC3)S(=O)(=O)c3cc(F)ccc32)cc1`, the RP-LC retention time was 654 s.
`Cc1nn(C(C)C)c(C)c1S(=O)(=O)N1CCN(C(=O)C2(c3ccccc3)CC2)CC1`: the RP-LC retention time was 890 s.
